# Laboratory results from patent US20090018111A1, “Novel Antimicrobial Medicament” (priority 2004, published 2009).
# Like-named read-outs stand apart in the source and are kept apart here.
# What was measured:
# Assay in all cases: Sensitivity test (agar dilution)
# S. marcescens X 100 = format: cell-based, Serratia marcescens; conditions: Serratia marcescens, S. marcescens X 100
# Procedure: (§1) The antibacterial activities were tested against various 18 bacteria (27 standard strains) which are representative bacteria caused clinically infectious disease (Staphylococcus aureus 3 strains, Staphylococcus epidermidis 1 strain, Micrococcus luteus 1 strain, Streptococcus pyogenes 1 strain, Enterococcus faecalis 1 strain, Enterococcus faecium 1 strain, Bacillus subtilis 1 strain, Escherichia coli 3 strains, Klebsiella pneumoniae 1 strain, Proteus mirabilis 1 strain, Proteus vulgaris 2 strains, Pseudomonas aeruginosa 3 strains, Serratia marcescens 2 strains, Enterobacter aerogenes 1 strain, Stenotrophomonas maltophilia 1 strain, Enterobacter cloacae 1 strain, Citrobacter freundii 1 strain, Moraxella catarrhalis 2 strains).
# (§2) According to the standard method of Japan Chemotherapeutic Society (Chemotherapy, vol. […], p 76-79 (1981)) the test was carried out using the agar dilution method. After dissolving test samples in distilled water, agar medium containing the test samples was prepared in such a manner that the final concentration became twice serial dilution by pouring serially diluted combination drug solution or a single drug solution into agar medium. As agar medium was used Mueller Hinton Agar medium (MHA). Then, each strain was cultivated over night at 37° C. in an incubator and suspended in buffered saline solution with gelatin (BSG) in the concentration of about 10^6 CFU/ml. The suspension (about 5 μl) containing test strains was inoculated to the medium containing the test samples by Micro Planter.
# (§3) When the sample is subjected to sensitivity test, this mixed solution was diluted by twice serial dilution method.
# (§4) Furthermore, when the drug is solely used, each test sample was used as it is, and diluted by twice serial dilution method from the maximum concentration to the minimum concentration.
# (§5) FIC index based on MIC value was calculated. […] Namely, when FIC index calculated by the following formula is equal or less than 1, the enhanced effect of the combination drug in said ratio is considered as positive. When FIC index is over 1, the enhanced effect of the combination drug in said ratio is considered as negative.
# (§6) Formula of FIC index: FIC index=(MIC of Drug A in combination/MIC of Drug A alone)+(MIC of Drug B in combination/MIC of Drug B alone) N.C. in tables means being not calculated.
# S. marcescens GN6473 = format: cell-based, Serratia marcescens; conditions: Serratia marcescens, S. marcescens GN6473
# Procedure: as §1, §2, §3, §4, §5, §6
# E. coli ML1410 = format: cell-based, Escherichia coli; conditions: Escherichia coli, E. coli ML1410
# Procedure: as §1, §2, §3, §4, §5, §6
# E. coli NIHJ JC-2 = format: cell-based, Escherichia coli; conditions: Escherichia coli, E. coli NIHJ JC-2
# Procedure: as §1, §2, §3, §4, §5, §6
# Str. pyogenes Cook = format: cell-based, Streptococcus pyogenes; conditions: Streptococcus pyogenes, Str. pyogenes Cook
# Procedure: as §1, §2, §3, §4, §5, §6
# S. epidermidis IAM1296 = format: cell-based, Staphylococcus epidermidis; conditions: Staphylococcus epidermidis, S. epidermidis IAM1296
# Procedure: as §1, §2, §3, §4, §5, §6
# P. aeruginosa IFO3451 = format: cell-based, Pseudomonas aeruginosa; conditions: Pseudomonas aeruginosa, P. aeruginosa IFO3451
# How it was run: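 Agar dilution on Mueller Hinton agar per the Japan Chemotherapeutic Society method, with two-fold serial dilutions of single drugs or combinations dissolved in water. Overnight 37° C cultures were suspended in BSG at ~10^6 CFU/ml and ~5 μl spotted.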
# E. cloacae GN7471 = format: cell-based, Enterobacter cloacae; conditions: Enterobacter cloacae, E. cloacae GN7471
# Procedure: as §1, §2, §3, §4, §5, §6
# S. aureus 209P = format: cell-based, Staphylococcus aureus; conditions: Staphylococcus aureus, 209P, S. aureus 209P
# Procedure: as §1, §2, §3, §4, §5, §6
# [1] = tested on: S. aureus MS94088 (hetero-MRSA); format: cell-based, Staphylococcus aureus; conditions: Staphylococcus aureus, MRSA, S. aureus MS94088 (hetero-MRSA)
# Procedure: as §1, §2, §3, §4, §5, §6
# [2] = tested on: S. aureus SP-7928 (homo-MRSA); format: cell-based, Staphylococcus aureus; conditions: Staphylococcus aureus, MRSA, S. aureus SP-7928 (homo-MRSA)
# Procedure: as §1, §2, §3, §4, §5, §6
# P. vulgaris GN7919 = format: cell-based, Proteus vulgaris; conditions: Proteus vulgaris, P. vulgaris GN7919
# Procedure: as §1, §2, §3, §4, §5, §6
# P. vurgalis OX-19 = format: cell-based, Proteus vulgaris; conditions: Proteus vulgaris, P. vurgalis OX-19
# Procedure: as §1, §2, §3, §4, §5, §6
# [3] = X100, drug alone, read-out: MIC alone
# [4] = GN6473, drug alone, read-out: MIC alone
# [5] = ML1410, drug alone, read-out: MIC alone
# [6] = NIHJJC2, drug alone, read-out: MIC alone
# [7] = Concomitant (AZT:SM = 1:1), read-out: MIC concomitant
# [8] = drug alone, read-out: MIC alone
# [9] = IAM1296, drug alone, read-out: MIC alone
# [10] = IFO3451, drug alone, read-out: MIC alone
# [11] = GN7471, drug alone, read-out: MIC alone
# [12] = GN7919, drug alone, read-out: MIC alone
# [13] = OX19, drug alone, read-out: MIC alone
# [14] = Concomitant (CAZ:SM = 1:1), read-out: MIC concomitant
Compound,MIC (S. marcescens X 100; [3]) [µg/mL],MIC (S. marcescens GN6473; [4]) [µg/mL],MIC (E. coli ML1410; [5]) [µg/mL],MIC (E. coli NIHJ JC-2; [6]) [µg/mL],MIC (Str. pyogenes Cook; [8]) [µg/mL],MIC (S. epidermidis IAM1296; [9]) [µg/mL],MIC (P. aeruginosa IFO3451; [10]) [µg/mL],MIC (E. cloacae GN7471; [11]) [µg/mL],MIC (S. aureus 209P; [8]) [µg/mL],"MIC [1, 8] [µg/mL]","MIC [2, 8] [µg/mL]",MIC (P. vulgaris GN7919; [12]) [µg/mL],MIC (P. vurgalis OX-19; [13]) [µg/mL],other results
"C[C@H]1[C@H](NC(=O)/C(=N\OC(C)(C)C(=O)O)c2csc(N)n2)C(=O)N1S(=O)(=O)O [AZT, aztreonam]",0.063,0.125,0.125,0.063,16,> 32,2,16,> 32,> 32,> 32,0.125,0.004,"MIC (S. marcescens X 100; X100, Concomitant (AZT:SM = 1:1), read-out: MIC concomitant): 0.031 µg/mL; MIC (S. marcescens GN6473; GN6473, Concomitant (AZT:SM = 1:1), read-out: MIC concomitant): 0.25 µg/mL; MIC (E. coli ML1410; ML1410, Concomitant (AZT:SM = 1:1), read-out: MIC concomitant): 0.063 µg/mL; MIC (E. coli NIHJ JC-2; NIHJJC2, Concomitant (AZT:SM = 1:1), read-out: MIC concomitant): 0.063 µg/mL; MIC (Str. pyogenes Cook; [7]): 0.004 µg/mL; MIC (S. epidermidis IAM1296; IAM1296, Concomitant (AZT:SM = 1:1), read-out: MIC concomitant): 0.031 µg/mL; MIC (P. aeruginosa IFO3451; IFO3451, Concomitant (AZT:SM = 1:1), read-out: MIC concomitant): 2 µg/mL; MIC (E. cloacae GN7471; GN7471, Concomitant (AZT:SM = 1:1), read-out: MIC concomitant): 4 µg/mL; MIC (S. aureus 209P; [7]): 0.008 µg/mL; MIC [1, 7]: 0.25 µg/mL; MIC [2, 7]: 2 µg/mL; MIC (P. vulgaris GN7919; GN7919, Concomitant (AZT:SM = 1:1), read-out: MIC concomitant): 0.25 µg/mL; MIC (P. vurgalis OX-19; OX19, Concomitant (AZT:SM = 1:1), read-out: MIC concomitant): 0.004 µg/mL"
"CC(C)(O/N=C(\C(=O)N[C@@H]1C(=O)N2C(C(=O)[O-])=C(C[n+]3ccccc3)CS[C@H]12)c1csc(N)n1)C(=O)O [CAZ, ceftazidime]",0.25,0.5,0.25,0.25,0.125,> 32,1,32,8,> 32,> 32,0.5,0.031,"MIC (S. marcescens X 100; X100, Concomitant (CAZ:SM = 1:1), read-out: MIC concomitant): 0.125 µg/mL; MIC (S. marcescens GN6473; GN6473, Concomitant (CAZ:SM = 1:1), read-out: MIC concomitant): 0.5 µg/mL; MIC (E. coli ML1410; ML1410, Concomitant (CAZ:SM = 1:1), read-out: MIC concomitant): 0.063 µg/mL; MIC (E. coli NIHJ JC-2; NIHJJC2, Concomitant (CAZ:SM = 1:1), read-out: MIC concomitant): 0.063 µg/mL; MIC (Str. pyogenes Cook; [14]): 0.004 µg/mL; MIC (S. epidermidis IAM1296; IAM1296, Concomitant (CAZ:SM = 1:1), read-out: MIC concomitant): 0.031 µg/mL; MIC (P. aeruginosa IFO3451; IFO3451, Concomitant (CAZ:SM = 1:1), read-out: MIC concomitant): 2 µg/mL; MIC (E. cloacae GN7471; GN7471, Concomitant (CAZ:SM = 1:1), read-out: MIC concomitant): 8 µg/mL; MIC (S. aureus 209P; [14]): 0.004 µg/mL; MIC [1, 14]: 0.25 µg/mL; MIC [2, 14]: 1 µg/mL; MIC (P. vulgaris GN7919; GN7919, Concomitant (CAZ:SM = 1:1), read-out: MIC concomitant): 0.5 µg/mL; MIC (P. vurgalis OX-19; OX19, Concomitant (CAZ:SM = 1:1), read-out: MIC concomitant): 0.008 µg/mL"
